# Laboratory results published in US10370364B1, “Substituted chromenes for treatment of fibrosis or non-alcoholic steatohepatitis” (OSTEONEUROGEN INC., priority 2018, dated 2019).
# Like-named read-outs stand apart in the source and are kept apart here.
# Experiments:
# ONGHEPA1 cells = assay: TGF-β-induced fibrosis of ONGHEPA1 cells (differentiation into myofibroblasts, phase contrast microscope); format: cell-based, rat; conditions: TGF-β 5 ng/ml, compound 50 μM in DMSO, 24 hours
# Procedure: In order to examine the effect of a compound of the present invention against fibrosis, ONGHEPA1 cells (KCTC13086BP), which are mesenchymal stem cells (MSCs) derived from rat hepatic stellate cells (HSCs) and capable of proliferating indefinitely, were first used. Fibrosis of the ONGHEPA1 cells can be induced by a simple method of treating the cells with TGF-β (transforming growth factor beta) or PDGF (platelet-derived growth factor).
# The ONGHEPA1 cells were seeded into medium, cultured for 24 hours, and then treated with TGF-β (5 ng/ml) to induce cell fibrosis. Alternatively, the cells were co-treated with TGF-β and the compound of the present invention (50 μM in DMSO) and cultured for 24 hours. Next, the degree of fibrosis of the cells, that is, the degree of differentiation into myofibroblasts, was examined with a phase contrast microscope (200×).
# In this regard, the detailed experimental method followed the paper of Kim et al. (Han-Soo Kim, Jun-Hwan Kim, Ji Yong Lee, Young-Min Yoon, Ik-Hwan Kim, Ho-Sup Yoon, Byung-Soo Youn. Small molecule-mediated reprogramming of epithelial-mesenchymal transition thereby blocking fibrosis. bioRxiv preprint first posted online Feb. 16, 2017; doi: http://dx.doi.org/10.1101/106591).
# The effects of the following comparative compounds against fibrosis were examined in the same manner as described in Experimental Example 1-1 above.
# [1] = test system: Diseased human lung fibroblasts (DHLF); assay: TGF-β-induced fibrosis of diseased human lung fibroblasts (DHLF); format: cell-based; conditions: TGF-β 5 ng/ml, compound 50 μM, 24, 48 or 72 hours
# Procedure: Diseased human lung fibroblasts (DHLF) (Lonza, Swiss) isolated from lung fibrosis patients were seeded into medium, cultured for 24 hours, and then treated with TGF-β (5 ng/ml) to induce fibrosis. Alternatively, the fibroblasts were co-treated with TGF-β and the compound of the present invention (50 μM in DMSO) and cultured for 24, 48 or 72 hours. Next, the degree of differentiation into myofibroblasts was examined with a phase contrast microscope (200×).
# Snail = Snail expression in A549 cells by real-time PCR; format: cell-based, human; conditions: A549, TGF-β plus compound
# Procedure: (§1) In addition, in order to examine whether the effect as described above would be attributable to the effect against EMT, the expression patterns of Snail and Vimentin, which are representative markers of EMT, in the cells of each test group, were analyzed by real-time PCR.
# Vimentin = Vimentin expression in A549 cells by real-time PCR; format: cell-based, human; conditions: A549, TGF-β plus compound
# Procedure: as §1
# [2] = Metabolic stability in rat liver microsomes with NADPH; format: in vitro ADME; conditions: rat, rat liver microsomes
# Procedure: (§2) The compound of the present invention was incubated with rat liver microsomes and NADPH, and then the rate of elimination of the compound was measured, thereby determining the intrinsic clearance value (CLint value) of the compound.
# Rat liver microsomes = assay: as above; format: in vitro ADME; conditions: Rat liver microsomes
# Procedure: as §2
# physchem = assay: physchem
# Procedure: The compound of the present invention was added to phosphate buffer (pH 7.4) at a concentration of 1 mg/ml and stirred. After 16 hours, the sample was filtered through a filter, and the supernatant was analyzed by HPLC-UV, thereby determining the content of compound dissolved.
# [3] = Pharmacokinetics in male SD rats (oral and i.v., various formulations); format: in vivo, rat
# Procedure: To examine the pharmacokinetics of the compound after oral administration, rat models were used.
# Male SD rats (weighed 250 to 300 g) were divided into several groups, each consisting of 3 rats, […], after which the amount of the compound present in the plasma was measured with the passage of time. […]
# For effective formulation of the compound of the present invention, the pharmacokinetics of various formulations after oral administration were examined according to the same method as described in Experimental Example 2-4 above.
# [4] = Concentration of compound in plasma and lung of bleomycin fibrotic mice; format: in vivo; conditions: 1 hour after final administration; pirfenidone 100 mpk, Compound 1 10-100 mpk PO
# Procedure: The amounts of the compound present in the plasma and lung of each of the sacrificed mice (finally administered with each compound at 1 hour before sacrifice) were measured. […] If it is attempted to formulate the compound of the present invention in various manners, it is expected that the compound of the present invention can effectively treat fibrosis even at lower concentrations.
# CYP3A4 = CYP3A4 (Homo sapiens, UniProt P08684)
# CYP2D6 = CYP2D6 (Homo sapiens, UniProt P10635); assay: CYP450 inhibition, CYP2D6
# CYP2C9 = CYP2C9 (Homo sapiens, UniProt P11712); assay: CYP450 inhibition, CYP2C9
# [5] = male, SD, plasma, iv, 1 mg/kg, rat, 1 mpk i.v, Formulation Example 1
# [6] = male, SD, rat, plasma, po, 10 mg/kg, 10 mpk po, Formulation Example 3, NMP/PEG400/Solutol HS/water vehicle
# [7] = male, SD, rat, plasma, po, 10 mg/kg, 10 mpk po, Formulation Example 4, NMP/ethanol/PEG200/saline vehicle
# [8] = male, SD, rat, plasma, po, 10 mg/kg, 10 mpk po, Formulation Example 5, in 30% HPCD aqueous solution
# [9] = male, SD, rat, plasma, po, 200 mg/kg, 200 mpk po, Formulation Example 2
# CYP2C9, sequence (P11712 whole entry): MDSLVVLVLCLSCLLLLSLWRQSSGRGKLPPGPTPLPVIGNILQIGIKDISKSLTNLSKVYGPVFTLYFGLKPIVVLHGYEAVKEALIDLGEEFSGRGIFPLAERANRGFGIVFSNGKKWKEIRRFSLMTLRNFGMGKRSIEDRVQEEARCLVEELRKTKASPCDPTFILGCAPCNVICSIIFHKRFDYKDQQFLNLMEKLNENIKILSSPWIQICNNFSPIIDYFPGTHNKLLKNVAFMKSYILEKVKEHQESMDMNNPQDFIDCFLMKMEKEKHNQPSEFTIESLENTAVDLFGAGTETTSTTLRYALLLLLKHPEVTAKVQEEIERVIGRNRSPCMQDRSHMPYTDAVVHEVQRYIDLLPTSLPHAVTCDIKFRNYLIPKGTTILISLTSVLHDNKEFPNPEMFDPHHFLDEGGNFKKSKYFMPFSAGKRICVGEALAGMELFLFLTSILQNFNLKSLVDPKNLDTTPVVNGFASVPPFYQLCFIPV
# CYP3A4, sequence (P08684 whole entry): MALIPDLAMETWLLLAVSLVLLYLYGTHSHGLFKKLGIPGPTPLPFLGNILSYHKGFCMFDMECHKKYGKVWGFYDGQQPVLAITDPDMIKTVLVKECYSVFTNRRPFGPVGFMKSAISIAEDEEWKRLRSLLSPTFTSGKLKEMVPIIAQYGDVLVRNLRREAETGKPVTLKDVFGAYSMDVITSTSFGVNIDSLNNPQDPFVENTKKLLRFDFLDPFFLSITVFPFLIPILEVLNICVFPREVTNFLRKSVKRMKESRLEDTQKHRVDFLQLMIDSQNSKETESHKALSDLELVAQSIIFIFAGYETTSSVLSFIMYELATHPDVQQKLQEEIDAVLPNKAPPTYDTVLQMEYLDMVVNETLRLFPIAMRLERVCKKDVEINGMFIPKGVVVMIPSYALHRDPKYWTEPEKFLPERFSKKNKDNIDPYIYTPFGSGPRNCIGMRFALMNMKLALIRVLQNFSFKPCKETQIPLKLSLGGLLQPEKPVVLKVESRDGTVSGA
# CYP2D6, sequence (P10635 whole entry): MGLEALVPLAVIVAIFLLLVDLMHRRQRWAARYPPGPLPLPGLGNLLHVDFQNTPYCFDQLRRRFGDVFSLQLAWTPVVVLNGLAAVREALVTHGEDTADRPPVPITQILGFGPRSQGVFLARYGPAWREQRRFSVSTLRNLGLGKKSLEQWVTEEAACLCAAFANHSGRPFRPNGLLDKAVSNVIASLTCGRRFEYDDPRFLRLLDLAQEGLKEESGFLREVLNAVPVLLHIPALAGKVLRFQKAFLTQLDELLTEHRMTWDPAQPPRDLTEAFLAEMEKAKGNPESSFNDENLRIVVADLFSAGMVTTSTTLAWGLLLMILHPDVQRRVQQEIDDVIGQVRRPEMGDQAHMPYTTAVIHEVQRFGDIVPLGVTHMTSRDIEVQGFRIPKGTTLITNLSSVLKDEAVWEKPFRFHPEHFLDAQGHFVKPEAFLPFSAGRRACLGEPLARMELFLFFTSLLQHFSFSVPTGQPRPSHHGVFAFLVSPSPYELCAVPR
structure (smiles),measurement,setting,value
"COc1ccc(-c2cc(=O)c3c(O)c(OC)c(OCCN4CCNC(=O)C4)cc3o2)cc1OC [Compound 1, 4-(2-((2-(3,4-dimethoxyphenyl)-5-hydroxy-6-methoxy-4-oxo-4H-chromen-7-yl)oxy)ethyl)piperazin-2-one]",degree of fibrosis of the cells (differentiation into myofibroblasts),ONGHEPA1 cells,showed no fibrosis symptom
same,degree of differentiation into myofibroblasts (fibrosis symptom),[1],showed little or no fibrosis symptom
same,growth of the cells,[1],inhibited
same,expression of Snail,Snail,significantly inhibited
same,expression of Vimentin,Vimentin,significantly inhibited
same,microsomal CLint,[2]; read-out: CL int,19.4 µL/min/mg
same,half-life,[2]; read-out: t½,1.19 h
same,Clearance value,Rat liver microsomes,Moderate
same,metabolic stability (in words),Rat liver microsomes; NADPH,metabolically stable such that it could be comparable with atenolol
same,solubility in the buffer (in words),physchem; pH 7.4,"lower than that of caffeine, but higher than that of diethyl stilbesterol"
same,solubility at 16 h,"physchem; pH 7.4, aqueous buffer, thermodynamic from solid",9.59 µg/mL
same,plasma profile after oral administration (in words),"[3]; Formulation Example 2 compared to Formulation Example 3, FIG. 25",absorbed rapidly in vivo after oral administration and was maintained in the plasma for a long period of time
same,MRT inf,"[3]; male, SD, plasma, 10 mg/kg, rat, 10 mpk po, Formulation Example 5",3.2 ± 0.7 h
same,half-life,"[3]; male, SD, plasma, 10 mg/kg, rat, 10 mpk po, Formulation Example 5, read-out: t1/2 (converted)",1.9 ± 0.6 h
same,MRT inf,"[3]; male, SD, plasma, 200 mg/kg, rat, 200 mpk po, Formulation Example 2",1.7 ± 0.2 h
same,half-life,"[3]; male, SD, plasma, 200 mg/kg, rat, 200 mpk po, Formulation Example 2, read-out: t½ (converted)",1.5 ± 0.4 h
same,MRT inf,[3]; [5],0.4 h
same,Vd,[3]; [5],3.6 ± 0.25 L/kg
same,C0,"[3]; male, SD, plasma, iv, 1 mg/kg, rat, 1 mpk i.v, Formulation Example 1 (100% DMSO)",506 ± 130 ng/mL
same,clearance,"[3]; male, SD, plasma, iv, 1 mg/kg, rat, 1 mpk i.v, Formulation Example 1, read-out: CLP (converted)",112 mL/min/kg
same,half-life,"[3]; male, SD, plasma, iv, 1 mg/kg, rat, 1 mpk i.v, Formulation Example 1, read-out: t1/2 (converted)",0.38 ± 0.03 h
same,AUC(0-inf),"[3]; male, SD, rat, plasma, iv, 1 mg/kg, 1 mpk i.v, Formulation Example 1",149 ± 3 ng·h/mL
same,AUC(0-t),"[3]; male, SD, rat, plasma, iv, 1 mg/kg, rat, 1 mpk i.v, Formulation Example 1, read-out: AUC(0-t)",147 ± 2.2 ng·h/mL
same,bioavailability,"[3]; male, SD, rat, plasma, po, 10 mg/kg, 10 mpk po, Formulation Example 2",1.4%
same,bioavailability,"[3]; male, SD, rat, plasma, po, 10 mg/kg, 10 mpk po, Formulation Example 3",~9%
same,AUC(0-inf),[3]; [6],155 ± 7.5 ng·h/mL
same,Tmax,[3]; [6],0.25 ± 0.1 h
same,bioavailability,"[3]; male, SD, rat, plasma, po, 10 mg/kg, 10 mpk po, Formulation Example 4",~3%
same,AUC(0-inf),[3]; [7],46.4 ± 14.1 ng·h/mL
same,Tmax,[3]; [7],0.25 h
same,bioavailability,"[3]; male, SD, rat, plasma, po, 10 mg/kg, 10 mpk po, Formulation Example 5",~7%
same,Cmax,"[3]; male, SD, rat, plasma, po, 10 mg/kg, 10 mpk po, Formulation Example 5 (30% (w/v) HPCD aqueous solution)",393 ± 299 ng/mL
same,AUC(0-inf),[3]; [8],1080 ± 327 ng·h/mL
same,Tmax,[3]; [8],1.3 ± 0.6 h
same,Cmax,"[3]; male, SD, rat, plasma, po, 10 mg/kg, rat, 10 mpk po, Formulation Example 2 (Tween80: 0.5% CMC 1:99)",22.3 ± 8.9 ng/mL
same,Tmax,"[3]; male, SD, rat, plasma, po, 10 mg/kg, rat, 10 mpk po, Formulation Example 2, in Tween80:0.5% CMC aqueous vehicle",0.4 ± 0.1 h
same,AUC(0-t),"[3]; male, SD, rat, plasma, po, 10 mg/kg, rat, 10 mpk po, Formulation Example 2, in Tween80:0.5% CMC aqueous vehicle, read-out: AUC(0-t)",20.4 ± 6.2 ng·h/mL
same,Cmax,"[3]; male, SD, rat, plasma, po, 10 mg/kg, rat, 10 mpk po, Formulation Example 3 (NMP: PEG400: SOLUTOL HS: water 10:20:20:50)",62.2 ± 37.5 ng/mL
same,AUC(0-t),"[3]; male, SD, rat, plasma, po, 10 mg/kg, rat, 10 mpk po, Formulation Example 3, NMP/PEG400/Solutol HS/water vehicle, read-out: AUC(0-t)",126 ± 19.1 ng·h/mL
same,Cmax,"[3]; male, SD, rat, plasma, po, 10 mg/kg, rat, 10 mpk po, Formulation Example 4 (NMP: ethanol: PEG200: normal saline 5:10:30:55)",46.7 ± 8.8 ng/mL
same,AUC(0-t),"[3]; male, SD, rat, plasma, po, 10 mg/kg, rat, 10 mpk po, Formulation Example 4, NMP/ethanol/PEG200/saline vehicle, read-out: AUC(0-t)",42.5 ± 16 ng·h/mL
same,AUC(0-t),"[3]; male, SD, rat, plasma, po, 10 mg/kg, rat, 10 mpk po, Formulation Example 5, in 30% HPCD aqueous solution, read-out: AUC(0-t)",1000 ± 314 ng·h/mL
same,AUC(0-inf),[3]; [9],426 ± 67.7 ng·h/mL
same,Tmax,[3]; [9],1 h
same,bioavailability,[3]; [9],1.4%
same,Cmax,"[3]; male, SD, rat, plasma, po, 200 mg/kg, rat, 200 mpk po, Formulation Example 2 (Tween80: 0.5% CMC 1:99)",261 ± 41.4 ng/mL
same,AUC(0-t),"[3]; male, SD, rat, plasma, po, 200 mg/kg, rat, 200 mpk po, Formulation Example 2, read-out: AUC (0-24)",420 ± 69.3 ng·h/mL
same,AUC(0-t),"[3]; male, SD, rat, plasma, po, 200 mg/kg, rat, 200 mpk po, Formulation Example 2, read-out: AUC(0-t)",420 ± 69.3 ng·h/mL
same,bioavailability,"[3]; male, SD, rat, plasma, po, Formulation Example 2, dose not given",1.4%
same,AUC_% Extrap (obs),"[3]; rat, 1 mpk i.v, Formulation Example 1",1.8 ± 0.5%
same,AUC_% Extrap (obs),"[3]; rat, 10 mpk po, Formulation Example 5",7.0 ± 5.2%
same,absorption after oral administration (in words),"[3]; rat, 200 mpk po, 0.5% CMC and about 1% Tween-80",absorbed rapidly in vivo after oral administration
same,AUC_% Extrap (obs),"[3]; rat, 200 mpk po, Formulation Example 2",1.6 ± 0.7%
same,concentration of the compound in the lung,[4],relatively very low
same,concentration of the compound in the plasma,[4],relatively very low
same,inhibitory activity against CYP3A4 (in words),CYP3A4,little or very low inhibitory activity
same,IC50,CYP2D6,> 50 µM
same,IC50,CYP2C9,5.54 µM
